The values below come from patent publication US20040086535A1, “Novel antiviral acitivities of primate theta defensins and mammalian cathelicidins” (priority 2001, published 2004).

Read-outs that look alike come from different tables or passages of the source. No end group written: not given here.

Data set [1] concerns EIAV (MA-1 strain) in equine dermal cell line ED. Put plainly: EIAV infectivity, immunostaining of antigen-expressing cells at 40 h. The format is cell-based, equine infectious anemia virus. To be noted: for effect on the EIAV virus titer: theta defensins.
The subject of data set [2] is HIV (pNL4-3 strain) in HeLa 37 cells. The class given is cell-based. As to conditions: for anti-viral activity against HIV, numbers of HIV antigen positive cells (qualitative): theta defensins preincubated 15-30 minutes with HIV, HeLa cells, 40 h; for anti-retroviral activity of carboxy-terminal peptides (qualitative): HIV, 8 μg/ml, 40 h (FIG. 3B), preliminary studies.

Data set [3] deals with vaccinia virus. The experiment in a line: Vaccinia virus replication. The format is cell-based. To be noted: similar concentrations.
In data set [4] the test system is herpes simplex 2 (HSV-2). The experiment in a line: HSV-2 plaque formation inhibition, virus preincubated with peptide. The format is cell-based, herpes simplex virus 2.
The subject of data set [5] is herpes simplex 1 (HSV-1). Put plainly: HSV-1 plaque formation inhibition, virus preincubated with peptide. The class given is cell-based, herpes simplex virus 1.
Data set [6] is described as follows: % helicity (circular dichroism). The class given is physicochemical. As to conditions: for % helicity in Phos. Buffer: phosphate buffer; for % helicity in phosphate buffer + 40% TFE: phosphate buffer + 40% TFE (parenthetical value). (In general: Circular dichroism is the unequal absorption of left and right circularly polarised light.)
Data set [7] can be described thus: Systemic toxicity in mice. As to conditions: systemic dose of 5 mg/kg.
For data set [8] the following is noted: mice, lung instillation of 100 μg.
Data set [9] has as its system herpes viruses and retroviruses.
Data set [10] concerns primary human fibroblasts.
The conditions of data set [11]: mouse, in vivo, 5 mg/kg.
Data set [12] relates to cytomegalovirus (CMV). Put plainly: CMV plaque formation / cytopathology in primary human fibroblasts. The format is cell-based. As to conditions: for CMV plaque formation: virus preincubated 1 h at 37° C., MOI approx. 5, 14 days post infection.
Data set [13] relates to EIAV (MA-1). The experiment in a line: Time course of Ov-1 addition against EIAV, antigen immunostaining of monolayers. The format is cell-based, equine infectious anemia virus. To be noted: 10 μg/ml. How it is done: Studies with EIAV investigating the mode of action of the Ov class antivirals indicate that the peptides are acting early within the viral life cycle, perhaps acting on the viral particle itself. Ten μg/ml of Ov-1 was added to virus stocks of MA-1 either before, at the time of infection or various times following infection. Virus and peptide was then removed from the media 48 h post infection and the infected cultures were maintained for an additional 5 days to allow spread of any virus that is present within the culture. Monolayers were then immunostained for EIAV antigen expression.

For data set [14], the system named is adenovirus, a non-enveloped virus. The experiment in a line: Adenovirus infectivity. As to conditions: similar concentrations (6-8 μg/ml); data not shown. The format is cell-based.

For the substance “GFCRCLCRRGVCRCICTR [RTD-1, rhesus monkey theta defensin]”, the “effect on the EIAV virus titer” value in data set [1] is on record as “no effect”.

As for “GICRCICGRGICRCICGR [HTD-1, synthetic peptide specified from human pseudogene, human theta defensin 1]”, in [2] (oxidized, circularized versus oxidized form), the “enhancement of IC50 by circularization” value is recorded as “about 10 fold”. Further, the “anti-viral activity against HIV, numbers of HIV antigen positive cells (qualitative)” value in data set [2] was “greatest anti-viral activity”; in data set [2] (listed as human theta defensin-1), “most effective”. Besides, the “effect on the EIAV virus titer” value in data set [1] was “no effect”.

For the substance “GVCRCLCRRGVCRCLCRR [RTD-3, rhesus monkey theta defensin]”, the “anti-viral activity against HIV, numbers of HIV antigen positive cells (qualitative)” value is “greatest anti-viral activity” in data set [2] and “most effective” in [2] (listed as rhesus theta defensin-3).

With “HIIKKYGPTILRIIRIIG-NH2 [Ov-6, 18 carboxyl-terminal amino acids of Ov-1]”, in data set [2], the “anti-retroviral activity of carboxy-terminal peptides (qualitative)” value (shortened to “anti-retroviral activity”) is “did not have appreciable anti-viral activity”.

For “IHIIKKYGPTILRIIRIIG-NH2 [Ov-5, carboxy-terminal 19-mer of Ov-1]”, the “anti-retroviral activity” value in data set [2] is reported as “have anti-retroviral activity”.

As to “ISRLAGLLRKGGEKIGEKLKKIGQKIKNFFQKLVPQPEQ (listed as Mus musculus) [mCramp, a murine cathelicidin]”, the “infectivity of HIV (qualitative)” value in data set [2] is on record as “consistently reduced the infectivity”. In addition, the “inhibitory effect on vaccinia virus replication” value in data set [3] is given as “no inhibitory effect”. In [4], the “reduction of herpes simplex 2 replication” value is “approximately 75%”. In addition, in [5], the “reduction of herpes simplex 1 replication” value is “approximately 75%”. In data set [1], the “infectivity of EIAV (qualitative)” value is “consistently reduced the infectivity”.

For “KIIHIIKKYGPTILRIIRIIG-NH2 [Ov-4, carboxy-terminal 21-mer of Ov-1]”, the “anti-retroviral activity” value in data set [2] is recorded as “have anti-retroviral activity”.

Regarding KNLRRIIRKGIHIIKKYG [Ov-2 (G10)], in data set [6], the “% helicity in Phos. Buffer” value is given as 7.4% and the “% helicity in phosphate buffer + 40% TFE” value came to 50.4%.

In the case of “KNLRRIIRKIIHIIKKYG [Ov-2, KNLRRIIRKIIHIIKKYG]”, the adverse effects entry in [7] is “no adverse effects”. Besides, the “inflammation, cytokine elevation, blood markers” value in [8] was “No imflammation, cytokine elevation or increase in blood markers was detected”.

As for “KNLRRIIRKIIHIIKKYGPTILRIIRIIG-NH2 [Ov-1]”, the “decrease of HIV infectivity” value in data set [2] (6-8 μg/ml peptide) is recorded as “greater than 100 fold”. The “effective LD50 for inhibiting herpes viruses and retroviruses” value in data set [9] is on record as “approximately 3 μg/ml”. Also, in data set [10], the “effect on the monolayer of primary human fibroblasts” value is “little to no effect”. Further, in data set [11], the adverse effects result is given as “no adverse effects”. Also, the CMV plaque formation entry in [12] (5 μg/ml) is “Plaque formation and accompanying monolayer disintegration can be observed”; in data set [12] (20 μg/ml), “No plaque formation was detected”. Besides, the “CMV plaque formation (qualitative)” value in data set [12] (14 days) is recorded as “reduced plaque formation”. In addition, the “outcome of culture (qualitative)” value in data set [13] (added 30 minutes or later following virus infection) was “resulted in infection and spread of the virus throughout the monolayer”. In [13] (added during preincubation or at the time of infection), the “effectiveness in inhibiting virus replication” value worked out at 100%. Moreover, the “inhibition of HSV-2 plaque formation” value in [4] (6 μg/ml peptide) is 3-6 fold; in [4] (18 μg/ml peptide), “approximately 100 fold”. Also, the entries for the “inhibition of HSV-1 plaque formation” value in data set [5] (6 μg/ml peptide) and in [5] (18 μg/ml peptide) were 3-6 fold and “approximately 100 fold”, respectively. For the same substance, the “decrease of EIAV infectivity” value in data set [1] (6-8 μg/ml peptide) is “greater than 100 fold”. Moreover, the “effect on infectivity of adenovirus” value in data set [14] was less than 10 fold. In data set [6], the “% helicity in Phos. Buffer” value was 43.9%. In addition, the “% helicity in phosphate buffer + 40% TFE” value in [6] came to 97.9%.

Turning to KNLRRITRKIIHIIKKYG [Ov-2 (T7)], in [6], the “% helicity in Phos. Buffer” value is 8.0% and the “% helicity in phosphate buffer + 40% TFE” value stood at 66.8%.

As for “LRRIIRKIIHIIKK-NH2 [Ov-3, LRRIIRKIIHIIKK-NH2]”, the adverse effects result in data set [7] was “no adverse effects”.
